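Where inhibition never reached the appropriate level, the endpoint shown equals the highest concentration tested. Otherwise, values were interpolated linearly from a five-concentration, 48-hour dose response in 96-well plates. Abbreviation: GI50, concentration required for 50% inhibition of growth.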 Activity calls are given as the source filed them. No stated cut-off is given here; in the data, active = GI50 up to about 1.1 µM and inactive = higher. Residues, ends and D or L forms follow the SMILES beside them. *: point of attachment. Fmoc = O=C(OCC1c2ccccc2-c2ccccc21)*; Boc = CC(C)(C)OC(=O)*
What was measured:
Experiment in all cases: inhibition of tumour cell growth, NCI panel, 48 h
[1] = tested on: HCT-15
[2] = tested on: OVCAR-4
[3] = tested on: EKVX
[4] = tested on: U-251
[5] = tested on: SN12C
[6] = tested on: SNB-75
[7] = tested on: MCF7
[8] = tested on: K562
[9] = tested on: CCRF-CEM
[10] = tested on: A498
[11] = tested on: A549
[12] = tested on: OVCAR-5
[13] = tested on: SF-268
[14] = tested on: Hs-578T
[15] = tested on: SF-539
[16] = tested on: HCT-116
[17] = tested on: Malme-3M
[18] = tested on: MDA-MB-435
[19] = tested on: LOX IMVI

SMILES | GI50 [1] [µM] | GI50 [2] | GI50 [3] | GI50 [4] | GI50 [5] | GI50 [6] | GI50 [7] | GI50 [8] | GI50 [9] | GI50 [10] | GI50 [11] | GI50 [12] | GI50 [13] | GI50 [14] | GI50 [15] | GI50 [16] | GI50 [17] | GI50 [18] | GI50 [19]
C/N=C1\OC2=C3C(c4ccccc4)(O/C(=N/C)N(C)C3(c3ccccc3)OC2=O)N1C (stereo not drawn) | > 100 | > 100 µM (inactive) | > 100 µM (inactive) | > 100 µM (inactive) | > 100 µM (inactive) | 71.4 µM (inactive) | > 100 µM (inactive) | > 100 µM (inactive) | > 100 µM (inactive) | > 100 µM (inactive) | > 100 µM (inactive) | > 100 µM (inactive) | > 100 µM (inactive) | > 100 µM (inactive) | > 100 µM (inactive) | > 100 µM (inactive) |  |  | 
Cc1ccc(C)c(NC(=O)/C(=N\NC(N)=S)C(C#N)c2ccccc2)c1 (stereo not drawn) | > 100 | > 100 µM (inactive) | > 100 µM (inactive) | > 100 µM (inactive) | > 100 µM (inactive) | > 100 µM (inactive) |  | > 100 µM (inactive) | > 100 µM (inactive) | > 100 µM (inactive) | > 100 µM (inactive) | > 100 µM (inactive) | > 100 µM (inactive) |  | > 100 µM (inactive) | > 100 µM (inactive) | > 100 µM (inactive) |  | 
O=c1oc2cc(O)ccc2cc1-c1nc2ccccc2s1 | 20.1 | 28.2 µM (inactive) | 27.2 µM (inactive) | 23 µM (inactive) | 21.8 µM (inactive) |  | 23.9 µM (inactive) | 7.41 µM (inactive) | 10.4 µM (inactive) | 19.6 µM (inactive) | 19.1 µM (inactive) | 30.8 µM (inactive) |  |  | 24.7 µM (inactive) | 21.8 µM (inactive) |  | 27.3 µM (inactive) | 25.9 µM (inactive)
CC12CCCCC1=[N+]([O-])C(C)(C)N2O (stereo not drawn) | > 100 | > 100 µM (inactive) | > 100 µM (inactive) | > 100 µM (inactive) | > 100 µM (inactive) |  | > 100 µM (inactive) | > 10 µM (inactive) | > 100 µM (inactive) |  | > 100 µM (inactive) | > 100 µM (inactive) | > 100 µM (inactive) | > 100 µM (inactive) | > 100 µM (inactive) | > 100 µM (inactive) | > 100 µM (inactive) | > 100 µM (inactive) | > 100 µM (inactive)
C=C1CC(C)(COc2ccc3c(C)c(Cl)c(=O)oc3c2)OC1=O (stereo not drawn) | 2.03 | 2.31 µM (inactive) | 5.9 µM (inactive) | 7.82 µM (inactive) | 5.07 µM (inactive) | 2.02 µM (inactive) | 1.24 µM (inactive) | 0.518 µM (active) | 0.331 µM (active) |  | 11.1 µM (inactive) | 4.23 µM (inactive) | 3.52 µM (inactive) | 3.11 µM (inactive) | 3.61 µM (inactive) | 0.408 µM (active) | 1.9 µM (inactive) | 2.97 µM (inactive) | 0.964 µM (active)
Cc1ccc(/C=N/Nc2ncccn2)s1 | > 100 | > 100 µM (inactive) | > 100 µM (inactive) | > 100 µM (inactive) | > 100 µM (inactive) | > 100 µM (inactive) | > 100 µM (inactive) | > 10 µM (inactive) | > 100 µM (inactive) |  | > 100 µM (inactive) | > 100 µM (inactive) | > 100 µM (inactive) | > 100 µM (inactive) | > 100 µM (inactive) | > 100 µM (inactive) | > 100 µM (inactive) | > 100 µM (inactive) | > 100 µM (inactive)
FC1=C2C3CCC(C3)C2C1(F)F (stereo not drawn) | > 100 | > 100 µM (inactive) | > 100 µM (inactive) | > 100 µM (inactive) | > 100 µM (inactive) | > 100 µM (inactive) | > 100 µM (inactive) | > 100 µM (inactive) | 47.6 µM (inactive) | > 100 µM (inactive) | > 100 µM (inactive) | > 100 µM (inactive) | > 100 µM (inactive) |  | > 100 µM (inactive) | > 100 µM (inactive) | > 100 µM (inactive) | > 100 µM (inactive) | > 100 µM (inactive)
CCOC(=O)C1CCCc2sc(N)c(C#N)c21 (stereo not drawn) | > 100 |  | 57.3 µM (inactive) | > 100 µM (inactive) | > 100 µM (inactive) | > 100 µM (inactive) | > 100 µM (inactive) | > 100 µM (inactive) |  | > 100 µM (inactive) | > 100 µM (inactive) | > 100 µM (inactive) |  | > 100 µM (inactive) |  | > 100 µM (inactive) | > 100 µM (inactive) |  | 
COc1cccc(NC(=O)C(=O)C2C=CCS2(=O)=O)c1 (stereo not drawn) | > 100 | > 100 µM (inactive) | > 100 µM (inactive) | > 100 µM (inactive) | > 100 µM (inactive) | 56 µM (inactive) |  | > 100 µM (inactive) | > 100 µM (inactive) | > 100 µM (inactive) | > 100 µM (inactive) | > 100 µM (inactive) | > 100 µM (inactive) |  | > 100 µM (inactive) | > 100 µM (inactive) | > 100 µM (inactive) |  | > 100 µM (inactive)
CCOP(C)(=O)C(Nc1ccc(F)cc1)c1ccc(F)cc1 (stereo not drawn) | > 100 | > 100 µM (inactive) | > 100 µM (inactive) | > 100 µM (inactive) | > 100 µM (inactive) |  |  | > 100 µM (inactive) | > 100 µM (inactive) | > 100 µM (inactive) | > 100 µM (inactive) | > 100 µM (inactive) | > 100 µM (inactive) | > 100 µM (inactive) | > 100 µM (inactive) | > 100 µM (inactive) | > 100 µM (inactive) | > 100 µM (inactive) | > 100 µM (inactive)
CC(=O)Oc1cc2c[n+](C)c3c4cc(OC(C)=O)c(OC(C)=O)cc4ccc3c2cc1OC(C)=O | 2.69 |  | 3.56 µM (inactive) | 1.72 µM (inactive) | 3.43 µM (inactive) |  | 3.17 µM (inactive) |  |  | 7.5 µM (inactive) | 12.8 µM (inactive) | 17.3 µM (inactive) | 0.407 µM (active) | > 100 µM (inactive) |  | 2.3 µM (inactive) | 2.39 µM (inactive) |  | 2.82 µM (inactive)
COc1ccc(N2C(=O)CC(=O)N(C(=O)COc3ccc(OCC(=O)N4C(=O)CC(=O)N(c5ccc(OC)cc5)C4=S)cc3)C2=S)cc1 | 48.6 | 27 µM (inactive) | 92.9 µM (inactive) | 37.1 µM (inactive) | 43.3 µM (inactive) | 54 µM (inactive) | 31.1 µM (inactive) | 41.4 µM (inactive) |  | 61.7 µM (inactive) | 35.8 µM (inactive) | > 100 µM (inactive) | 35.4 µM (inactive) |  |  | 15.7 µM (inactive) | 68.2 µM (inactive) | 36.9 µM (inactive) | 
O=C(NNC(=S)Nc1ccc(Cl)cc1)c1cc(-c2ccccc2)nc2ccccc12 | 3.43 | 10.5 µM (inactive) |  | 3.51 µM (inactive) | 4.97 µM (inactive) | 4.9 µM (inactive) | 4.01 µM (inactive) | 4.28 µM (inactive) | 1.66 µM (inactive) |  | 7.11 µM (inactive) | 10.3 µM (inactive) | 11.7 µM (inactive) | 11.7 µM (inactive) | 3.69 µM (inactive) | 3.06 µM (inactive) | 4.6 µM (inactive) | 2.82 µM (inactive) | 
CC(C)(C)OC(=O)NCCCCC(NC(=O)C(Cc1c[nH]c2ccccc12)NC(=O)OCC1c2ccccc2-c2ccccc21)C(=O)N1CCCC1C(=O)NCC(N)=O (stereo not drawn) (Fmoc-WK(Boc)PG-NH2; configuration not given here) | > 100 | > 100 µM (inactive) | > 100 µM (inactive) | > 100 µM (inactive) | > 100 µM (inactive) | > 100 µM (inactive) | > 100 µM (inactive) | > 100 µM (inactive) | > 100 µM (inactive) |  | > 100 µM (inactive) | > 100 µM (inactive) | > 100 µM (inactive) | > 100 µM (inactive) | > 100 µM (inactive) | > 100 µM (inactive) | > 100 µM (inactive) | > 100 µM (inactive) | > 100 µM (inactive)
Cc1cccc2nc(-c3ccccc3)cc(=O)n12 | 94 | > 100 µM (inactive) | 7.26 µM (inactive) | > 100 µM (inactive) | 69.2 µM (inactive) |  | 50.2 µM (inactive) | > 100 µM (inactive) | > 100 µM (inactive) |  | > 100 µM (inactive) | > 100 µM (inactive) | > 100 µM (inactive) | 12.5 µM (inactive) | > 100 µM (inactive) | > 100 µM (inactive) | > 100 µM (inactive) | > 10 µM (inactive) | 
O=C1NC(Cc2c[nH]c3ccccc23)C(=O)N2C(c3ccccc3)c3[nH]c4ccccc4c3C[C@@H]12 (stereo partly drawn) | 21.7 | 26.9 µM (inactive) | 22.5 µM (inactive) | 19.5 µM (inactive) | 16.4 µM (inactive) |  | 15.7 µM (inactive) | 21 µM (inactive) |  | 29.8 µM (inactive) | 25.8 µM (inactive) | 22 µM (inactive) | 26.1 µM (inactive) | 16.5 µM (inactive) |  | 15.4 µM (inactive) | 15 µM (inactive) | 18.8 µM (inactive) | 19.7 µM (inactive)
CCN(CCN(CC)C(=O)Nc1ccccc1)C(=O)Nc1ccccc1 | > 100 |  | > 100 µM (inactive) | > 100 µM (inactive) | > 100 µM (inactive) | > 100 µM (inactive) | > 100 µM (inactive) | > 100 µM (inactive) | > 100 µM (inactive) | > 100 µM (inactive) | > 100 µM (inactive) | > 100 µM (inactive) | > 100 µM (inactive) | > 100 µM (inactive) |  | > 100 µM (inactive) | > 100 µM (inactive) |  | > 100 µM (inactive)
